Reference: paper PMC10914731, “Homo-BacPROTAC-induced degradation of ClpC1 as a strategy against drug-resistant mycobacteria” (Nature Communications, 2024)
≈ marks a conversion by molar mass, not a printed value. Where “and” joins values, the source holds several entries; their conditions need not be identical. Equal entries are not always repeated. Where two headings read alike, the source gives them in different places. *1 amine or outer side, *2 acyl side, *3 side chain or, on linkers, in order; H or OH if unused. Where a SMILES comes first, the peptide text is derived from it. [ ]: non-standard residue; d: D form. X1 = C#CCn1cc(C[C@H](N[*:1])C(=O)[*:2])c2ccccc21; X7 = C=CCn1cc(C[C@H](N[*:1])C(=O)[*:2])c2ccccc21; NMeLeu(5-OH,4R) = CN[C@@H](C[C@@H](C)CO)C(=O)O; Phe(βR-OMe) = CO[C@H](c1ccccc1)[C@H](N)C(=O)O; NMeL = CN[C@@H](CC(C)C)C(=O)O

Key:
[1] = assay type: in vitro ADME, Rat; conditions: for Microsomal Stability Rat: clearance in microsomes
Protocol: (§1) The kinetics of compound degradation in liver microsomes is assessed in an assay with 1 µmol/l of compound and 0.5 mg/ml liver microsomes in a medium of 100 mM Tris-HCl pH 7.5, 6.5 mM MgCl2 and 1 mM NADPH at 37 °C. The reaction is stopped at multiple time points by adding acetonitrile. After centrifugation, the compound concentration is measured in the supernatants by high-performance liquid chromatography (HPLC) tandem mass spectrometry (MS/MS). The results are fitted to a first-order decay and the half-lives are converted to clearance (stated as % of the liver blood flow (%Qh)) using the well-stirred liver model.

[2] = assay type: in vitro ADME, Rat; conditions: for Hepatocyte Rat: clearance in hepatocytes
Protocol: (§2) Cryopreserved hepatocytes are incubated in an appropriate buffer system containing 50% species serum. Following an acclimation period (15–30 min) in an incubator (37 °C, 5−10% CO2, 85–95% humidity) the test compound is added to the hepatocyte suspension (pH 7.4, typical cell density of about 1 million cells/mL; final concentration of test compound is 1 µM, final DMSO concentration <0.05% v/v). The cells are incubated for up to 6 h and samples are taken at 6 different time points. Samples are then quenched with acetonitrile and pelleted by centrifugation. The remaining amount of parent compound in the supernatants is then analysed by HPLC-MS/MS. Clearance is calculated from compound half-lives using the well-stirred liver model and is converted to clearance stated as % of the liver blood flow (% Qh).

Caco-2 monolayers = test: in vitro; conditions: for CACO permeability PEAB: apical to basolateral; for CACO permeability PEBA: basolateral to apical; for Caco-2 Int. Perm: mean value of P(A−B) and P(B−A)
Source text: (§3) Supplementary Table 1. Structure-Activity Relationships part 1 (SPR, Caco-2) […]
(§4) SPR. Mean values ± standard deviation. Footnotes indicate the number of measurements performed for the respective compound: a) n = […]
(§5) [5] Permeability across Caco-2 monolayers in P(A−B): apical to basolateral and P(B−A): basolateral to apical direction (values reported in 10-
(§6) 6 cm s-1); efflux ratio = P(B−A)/P(A−B); Int. perm: mean value of P(A−B) and P(B−A). […] Influence of Trp-Nα methylation on P(A-B) and efflux
(§7) ratio. Bold: positive influence.

in vitro = conditions: human; for efflux ratio: Caco-2; for Papp A→B: apical to basolateral; for Papp B→A: basolateral to apical
Source text: as §3, §4, §5, §6, §7

[3] = Microsomal stability, human; assay type: in vitro ADME; conditions: for Microsomal Stability Human: clearance in microsomes
Protocol: as §1

[4] = assay type: in vitro ADME, Human; conditions: for Hepatocyte Human: clearance in hepatocytes
Protocol: as §2

[5] = Hepatocyte stability, mice; assay type: in vitro ADME; conditions: for Hepatocyte Mice: clearance in hepatocytes
Protocol: as §2

[6] = molecular target: ClpC1 NTD protein (M. tuberculosis) (Mycobacterium tuberculosis, UniProt P9WPC9); test: biochemical; assay type: binding; conditions: for koff: read-out: koff ClpC1-NTD
[7] = assay type: in vitro ADME, Mice; conditions: for Microsomal Stability Mice: clearance in microsomes
Protocol: as §1

Mtb ATCC 35825 = test: microbe, parasite or virus in culture; assay type: cell-based
Mtb # 11291 = test: microbe, parasite or virus in culture; assay type: cell-based; conditions: single well replicates
Mtb # 8673 = test: microbe, parasite or virus in culture; assay type: cell-based
[8] = system: Mycobacterium intracellulare; test: microbe, parasite or virus in culture; assay type: cell-based
Mycobacterium abscessus = test: microbe, parasite or virus in culture; assay type: cell-based
Mycobacterium fortuitum = test: microbe, parasite or virus in culture; assay type: cell-based
Mycobacterium avium = test: microbe, parasite or virus in culture; assay type: cell-based
[9] = SPR (Supplementary Table 1), read-out: KD ClpC1-NTD Mean ± SD
[10] = SPR, single independent measurements
[11] = SPR, single independent measurements, read-out: KD ClpC1-NTD
[12] = Experiment 2, three replicate columns

ClpC1 NTD protein (M. tuberculosis), sequence (P9WPC9 1-156, looked up, natural form): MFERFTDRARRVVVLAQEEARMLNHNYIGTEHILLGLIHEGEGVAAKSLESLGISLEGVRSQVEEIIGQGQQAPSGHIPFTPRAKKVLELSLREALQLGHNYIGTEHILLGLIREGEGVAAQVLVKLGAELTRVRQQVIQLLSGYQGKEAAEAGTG

Row | SMILES | Microsomal Stability Rat QH [1] | Microsomal Stability Rat [1] | Hepatocyte Stability Rat QH [2] | Hepatocyte Rat [2] | CACO permeability PEAB (Caco-2 monolayers) | CACO permeability PEBA (Caco-2 monolayers) | Caco-2 Int. Perm (Caco-2 monolayers) | efflux ratio (in vitro) | Papp A→B (in vitro; Caco-2, CACO permeability PEAB) | Papp B→A (in vitro; Caco-2, CACO permeability PEBA) | Microsomal Stability Human QH [3] | Microsomal Stability Human [3] | Hepatocyte Stability Human QH [4] | Hepatocyte Human [4] | Hepatocyte Mice [5] | Kd [6, 9] | koff ClpC1-NTD [6, 10] | Kd [6, 11] | koff [6, 10] | Microsomal Stability Mouse QH [7] | further results
1 | C=CCn1cc(C[C@@H]2NC(=O)[C@H](C(C)C)NC(=O)[C@H](CC(C)C)N(C)C(=O)[C@H](C(C)C)NC(=O)[C@H]([C@H](OC)c3ccccc3)NC(=O)[C@H](C)NC(=O)[C@H](C[C@@H](C)CO)N(C)C2=O)c2ccccc21 [Compound 13] (cyclo(A[Phe(βR-OMe)]V[NMeL]V[X7][NMeLeu(5-OH,4R)])) | >87.900% | > 88 %Qh | 65.282% | 65 %Qh | 2.4 ×10⁻⁶ cm/s | 18.999999999999998 ×10⁻⁶ cm/s | 10.7 10-6 cm s-1 | 7.9 | 4.5 ×10⁻⁶ cm/s | 33 ×10⁻⁶ cm/s | >88.400% | > 88 %Qh | 18.968% | 19 %Qh | 59 %Qh | 3.6 ± 0.2 nM | 0.1 s⁻¹ | 3.66 nM and 3.44 nM | 0.07 s⁻¹ | >88.400% | Hepatocyte Stability Mouse QH ([5]; Mouse): 58.852%; Microsomal Stability Mice [7]: > 88 %Qh
2 | Nc1ccc(C(=O)O)c(O)c1 [p-Aminosalicylic acid] |  |  |  |  |  |  |  |  |  |  |  |  |  |  |  |  |  |  |  |  | MIC (Mtb ATCC 35825; Mycobacterium tuberculosis, ATCC35825, mean, n = 2 well replicates): 104 µM and 16 µg/mL; MIC (Mtb ATCC 35825; Mycobacterium tuberculosis, ATCC35825, single well replicates): 16 µg/mL and 104 µM; MIC (Mtb ATCC 35825; single well replicates): 104.48 µM (≈ 16 µg/mL); MIC Mtb ATCC 35825 (Mtb ATCC 35825; single well replicates): 16 µg/mL (≈ 104 µM); MIC Mtb # 11291 (Mtb # 11291): 1 µg/mL (≈ 6.53 µM); MIC (Mtb # 11291; read-out: MIC Mtb # 11291): 6.53 µM (≈ 1 µg/mL); MIC (Mtb # 8673; Mycobacterium tuberculosis, mean, n = 2 well replicates): 6.5 µM and 1 µg/mL; MIC (Mtb # 8673; Mycobacterium tuberculosis, single well replicates): 6.53 µM and 1 µg/mL; MIC (Mtb # 8673; single well replicates): 6.53 µM (≈ 1 µg/mL); MIC Mtb # 8673 (Mtb # 8673; single well replicates): 1 µg/mL (≈ 6.53 µM)
3 | C#CCn1cc(C[C@@H]2NC(=O)[C@H](C(C)C)NC(=O)[C@H](CC(C)C)N(C)C(=O)[C@H](C(C)C)NC(=O)[C@H](Cc3ccccc3)NC(=O)[C@H](C)NC(=O)[C@H](C[C@@H](C)CO)N(C)C2=O)c2ccccc21 [SI-72] (cyclo(AFV[NMeL]V[X1][NMeLeu(5-OH,4R)])) | 87.300% | 87 %Qh | 81.5% and 81.75% | 82 %Qh | 0.29000000000000003 ×10⁻⁶ cm/s | 9.999999999999999 ×10⁻⁶ cm/s | 6.4 10-6 cm s-1 | 61.4 | 0.17 ×10⁻⁶ cm/s | 15 ×10⁻⁶ cm/s | >88.400% | > 88 %Qh | 23.35% and 19.57% | 12 %Qh | 71 %Qh | 14 ± 6 nM | 0.05 s⁻¹ | 17.7 nM and 9.9 nM | 0.07 s⁻¹ | >88.400% | Papp A→B (in vitro; Caco-2, Caco-2 permeability P (A-B)): 0.2 ×10⁻⁶ cm/s; Papp B→A (in vitro; Caco-2, Caco-2 permeability P (B-A)): 12.5 ×10⁻⁶ cm/s; Microsomal Stability Mice [7]: > 88 %Qh
4 | CC[C@H]1OC(=O)[C@H](C)[C@@H](O[C@H]2C[C@@](C)(OC)[C@@H](O)[C@H](C)O2)[C@H](C)[C@@H](O[C@@H]2O[C@H](C)C[C@H](N(C)C)[C@H]2O)[C@](C)(OC)C[C@@H](C)C(=O)[C@H](C)[C@@H](O)[C@]1(C)O [Clarithromycin, reference compound] |  |  |  |  |  |  |  |  |  |  |  |  |  |  |  |  |  |  |  |  | MIC (µg/ml) Mycobacterium intracellulare [8, 12]: 0.13 µg/mL (≈ 0.174 µM); MIC ([8]; Experiment 2, three replicate columns, read-out: MIC (µM) Mycobacterium intracellulare): 0.17 µM; MIC ([8]; Mycobacterium intracellulare, Experiment 2, three replicate columns, read-out: MIC (µM) Mycobacterium intracellulare): 0.17 µM; MIC ([8]; Mycobacterium intracellulare, Experiment 2, three replicate columns, read-out: MIC (µg/ml) Mycobacterium intracellulare): 0.13 µg/mL; MIC ([8]; Mycobacterium intracellulare, mean ± SD, read-out: MIC Mycobacterium intracellulare): 0.2 µM; MIC (µg/ml) Mycobacterium abscessus (Mycobacterium abscessus; [12]): 0.50 µg/mL (≈ 0.668 µM); MIC (Mycobacterium abscessus; Experiment 2, three replicate columns, read-out: MIC (µM) Mycobacterium abscessus): 0.67 µM; MIC (Mycobacterium abscessus; Mycobacteroides abscessus, Experiment 2, three replicate columns, read-out: MIC (µM) Mycobacterium abscessus): 0.67 µM; MIC (Mycobacterium abscessus; Mycobacteroides abscessus, Experiment 2, three replicate columns, read-out: MIC (µg/ml) Mycobacterium abscessus): 0.5 µg/mL; MIC (Mycobacterium abscessus; Mycobacteroides abscessus, mean ± SD, read-out: MIC Mycobacterium abscessus): 0.7 µM; MIC (µg/ml) Mycobacterium fortuitum (Mycobacterium fortuitum; [12]): 0.50 µg/mL (≈ 0.668 µM); MIC (Mycobacterium fortuitum; Experiment 2, three replicate columns, read-out: MIC (µM) Mycobacterium fortuitum): 0.67 µM; MIC (Mycobacterium fortuitum; Mycolicibacterium fortuitum, Experiment 2, three replicate columns, read-out: MIC (µM) Mycobacterium fortuitum): 0.67 µM; MIC (Mycobacterium fortuitum; Mycolicibacterium fortuitum, Experiment 2, three replicate columns, read-out: MIC (µg/ml) Mycobacterium fortuitum): 0.5 µg/mL; MIC (Mycobacterium fortuitum; Mycolicibacterium fortuitum, mean ± SD, read-out: MIC Mycobacterium fortuitum): 0.7 µM; MIC (µg/ml) Mycobacterium avium (Mycobacterium avium; [12]): 0.25 µg/mL (≈ 0.334 µM); MIC (Mycobacterium avium; Experiment 2, three replicate columns, read-out: MIC (µM) Mycobacterium avium): 0.33 µM; MIC (Mycobacterium avium; Mycobacterium avium, Experiment 2, three replicate columns, read-out: MIC (µM) Mycobacterium avium): 0.33 µM; MIC (Mycobacterium avium; Mycobacterium avium, Experiment 2, three replicate columns, read-out: MIC (µg/ml) Mycobacterium avium): 0.25 µg/mL; MIC (Mycobacterium avium; Mycobacterium avium, mean ± SD, read-out: MIC Mycobacterium avium): 0.3 µM
